Where two headings read alike, the source gives them in different places.
Assays:
aminopeptidase B = target: T1, aminopeptidase B (Rattus norvegicus, UniProt O09175); test: Aminopeptidase B-inhibitory activity; format: biochemical; conditions: modification of the method of Hoppusu
T1 sequence (O09175 1-650): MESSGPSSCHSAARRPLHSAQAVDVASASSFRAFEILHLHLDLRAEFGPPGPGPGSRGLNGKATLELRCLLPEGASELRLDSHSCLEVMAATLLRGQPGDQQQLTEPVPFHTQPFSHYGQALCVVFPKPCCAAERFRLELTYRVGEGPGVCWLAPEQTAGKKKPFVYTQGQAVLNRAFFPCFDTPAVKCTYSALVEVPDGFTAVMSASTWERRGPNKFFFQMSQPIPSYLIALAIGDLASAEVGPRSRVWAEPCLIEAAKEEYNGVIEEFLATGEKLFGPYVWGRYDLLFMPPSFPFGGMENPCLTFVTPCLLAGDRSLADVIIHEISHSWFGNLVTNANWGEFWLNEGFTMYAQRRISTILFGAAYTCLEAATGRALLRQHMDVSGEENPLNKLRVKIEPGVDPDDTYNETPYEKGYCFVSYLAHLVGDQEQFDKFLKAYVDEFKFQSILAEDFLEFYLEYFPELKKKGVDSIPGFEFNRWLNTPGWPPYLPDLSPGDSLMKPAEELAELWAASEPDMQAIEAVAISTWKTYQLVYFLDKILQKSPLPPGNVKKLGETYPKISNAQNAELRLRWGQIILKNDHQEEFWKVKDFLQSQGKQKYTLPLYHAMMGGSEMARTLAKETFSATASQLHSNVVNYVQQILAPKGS
Procedure: The aminopeptidase B-inhibitory activities (IC50) described above were determined by a modification of the method of Hoppusu disclosed in the specification of U.S. Pat. No. 4,595,698.

[1] = system: Delayed-Type Hypersensitivity (D.T.H.); test: Delayed-Type Hypersensitivity (D.T.H.) technique, cell-mediated immunopotentiating activity; format: in vivo
Source text: Accordingly, they are useful as an immunopotentiating agent.

[2] = background statement, see U.S. Pat. No. 4,595,698; cited from earlier work
[3] = background statement, see U.S. Pat. No. 4,595,698; cited from earlier work; remark: listed apart in the source

IC50 (aminopeptidase B) | SMILES | cell-mediated immunopotentiating activity ([1]; listed as (Ia)) | cell-mediated immunopotentiating activity [1] | immunopotentiating activity [2] | analgesic activity [3]
21.8 nM | N=C(N)NCCC[C@H](N)C(=O)C[C@@H](Cc1ccccc1)C(=O)O [Substance (I'), arphamenine A] | exhibit a cell-mediated immunopotentiating activity | – | – | –
– | N=C(N)NCCC[C@H](N)C(=O)C[C@H](Cc1ccccc1)C(=O)O [Substance (I"), epi-arphamenine A] | – | exhibit a cell-mediated immunopotentiating activity | – | –
15.6 nM | N=C(N)NCCC[C@H](N)C(=O)C[C@@H](Cc1ccccc1)C(=O)O [naturally occuring arphamenine A, arphamenine A] | – | – | shows an immunopotentiating activity | an analgesic activity

— US4870207A, “Synthesis of arphamenine A” (Zaiden Hojin Biseibutsu Kagaku Kenkyu Kai, priority 1983, dated 1989)
